Data reported in PubChem BioAssay (NCI).
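Results reflect a 48-hour exposure of cells in 96-well plates to compound at five concentrations. GI50: concentration for 50% inhibition of growth. The concentration for full growth arrest is given as TGI.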

How the values were obtained:
Assay in all cases: NCI tumour cell line growth inhibition, 48 h
NCI/ADR-RES ovarian = test system: NCI/ADR-RES ovarian
NCI-H460 lung = test system: NCI-H460 lung
SR leukemia = test system: SR leukemia
SNB-75 CNS = test system: SNB-75 CNS
HOP-92 NSCLC = test system: HOP-92 NSCLC
EKVX NSCLC = test system: EKVX NSCLC
HT29 colon = test system: HT29 colon
SK-MEL-2 melanoma = test system: SK-MEL-2 melanoma
HS 578T breast = test system: HS 578T breast
UACC-62 melanoma = test system: UACC-62 melanoma

Compound COc1ccc(-c2nn(-c3cccc(Cl)c3)cc2-c2nc(N)[nH]c(=O)c2C#N)cc1 has a GI50 (NCI/ADR-RES ovarian) of 3.33 µM, a TGI (NCI/ADR-RES ovarian) of 15.9 µM and a GI50 (NCI-H460 lung) of 6 µM. For the same compound, the TGI (NCI-H460 lung) was 27.7 µM, the GI50 (SR leukemia) was 3.73 µM and the TGI (SR leukemia) was 21.2 µM. For the same compound, the GI50 (SNB-75 CNS) was 2.88 µM, the TGI (SNB-75 CNS) was 21.1 µM and the GI50 (HOP-92 NSCLC) was 1.65 µM. The TGI (HOP-92 NSCLC) was 12.2 µM, the GI50 (EKVX NSCLC) was 3.29 µM and the TGI (EKVX NSCLC) was 35.4 µM. For the same compound, the GI50 (HT29 colon) was 4.29 µM, the TGI (HT29 colon) was 20 µM and the GI50 (SK-MEL-2 melanoma) was 3.94 µM. The TGI (SK-MEL-2 melanoma) was 15.8 µM, the GI50 (HS 578T breast) was 3.55 µM and the TGI (HS 578T breast) was 40.3 µM. For the same compound, the GI50 (UACC-62 melanoma) was 3.33 µM and the TGI (UACC-62 melanoma) was 15.4 µM.
With Oc1ccc(N=Nc2nccs2)c(O)c1 the GI50 (NCI/ADR-RES ovarian) was 2.58 µM, the TGI (NCI/ADR-RES ovarian) was 9.1 µM and the GI50 (NCI-H460 lung) was 3.67 µM. For the same compound, the TGI (NCI-H460 lung) was 17.9 µM, the GI50 (SR leukemia) was 2.12 µM and the TGI (SR leukemia) was 9.8 µM. The GI50 (SNB-75 CNS) was 14.2 µM, the TGI (SNB-75 CNS) was > 100 µM and the GI50 (HOP-92 NSCLC) was 3.34 µM. It also gave a TGI (HOP-92 NSCLC) of 24.7 µM, a GI50 (EKVX NSCLC) of 2.1 µM and a TGI (EKVX NSCLC) of 15.3 µM. The GI50 (HT29 colon) was 3.61 µM, the TGI (HT29 colon) was 23.1 µM and the GI50 (SK-MEL-2 melanoma) was 17.1 µM. The TGI (SK-MEL-2 melanoma) was 60.3 µM, the GI50 (HS 578T breast) was 13.6 µM and the TGI (HS 578T breast) was 78.1 µM. For the same compound, the GI50 (UACC-62 melanoma) was 4.6 µM and the TGI (UACC-62 melanoma) was 17.6 µM.
For c1ccc(NCCSc2nc3ccccc3s2)cc1, the TGI (NCI/ADR-RES ovarian) was > 100 µM, the TGI (NCI-H460 lung) was > 100 µM and the TGI (SR leukemia) was > 100 µM. The TGI (SNB-75 CNS) was > 100 µM, the TGI (HOP-92 NSCLC) was > 100 µM and the TGI (EKVX NSCLC) was > 100 µM. The TGI (HT29 colon) was > 100 µM, the TGI (SK-MEL-2 melanoma) was > 100 µM and the TGI (HS 578T breast) was > 100 µM. For the same compound, the TGI (UACC-62 melanoma) was > 100 µM.
With NCCCn1c2c(c3ccccc3c1=O)C(=O)c1ccccc1-2 the GI50 (NCI/ADR-RES ovarian) was 0.145 µM, the TGI (NCI/ADR-RES ovarian) was 2.68 µM and the GI50 (NCI-H460 lung) was 0.0647 µM. It also gave a TGI (NCI-H460 lung) of 9.22 µM, a GI50 (SR leukemia) of 0.0743 µM and a GI50 (SNB-75 CNS) of 0.539 µM. It also gave a TGI (SNB-75 CNS) of 3.71 µM, a GI50 (HOP-92 NSCLC) of 2.6 µM and a TGI (HOP-92 NSCLC) of 19.1 µM. The GI50 (EKVX NSCLC) was 0.539 µM, the TGI (EKVX NSCLC) was 2.9 µM and the GI50 (HT29 colon) was 0.128 µM. It also gave a TGI (HT29 colon) of 15.4 µM, a GI50 (SK-MEL-2 melanoma) of 4.31 µM and a TGI (SK-MEL-2 melanoma) of 12.5 µM. The GI50 (HS 578T breast) was 0.556 µM, the TGI (HS 578T breast) was 6.25 µM and the GI50 (UACC-62 melanoma) was 0.247 µM. The TGI (UACC-62 melanoma) was 2.69 µM.
For CN1C(NNC(=O)c2cccnc2)=NS(=O)(=O)c2cc(Cl)ccc21, the GI50 (NCI/ADR-RES ovarian) was > 100 µM, the TGI (NCI/ADR-RES ovarian) was > 100 µM and the GI50 (NCI-H460 lung) was > 100 µM. For the same compound, the TGI (NCI-H460 lung) was > 100 µM, the GI50 (SR leukemia) was > 100 µM and the TGI (SR leukemia) was > 100 µM. For the same compound, the GI50 (SNB-75 CNS) was > 100 µM, the TGI (SNB-75 CNS) was > 100 µM and the GI50 (HOP-92 NSCLC) was > 100 µM. For the same compound, the TGI (HOP-92 NSCLC) was > 100 µM, the GI50 (EKVX NSCLC) was > 100 µM and the TGI (EKVX NSCLC) was > 100 µM. The GI50 (HT29 colon) was > 100 µM, the TGI (HT29 colon) was > 100 µM and the GI50 (SK-MEL-2 melanoma) was > 100 µM. The TGI (SK-MEL-2 melanoma) was > 100 µM, the GI50 (HS 578T breast) was > 100 µM and the TGI (HS 578T breast) was > 100 µM. The GI50 (UACC-62 melanoma) was > 100 µM and the TGI (UACC-62 melanoma) was > 100 µM.
For Cc1sc2c(c1C)C(c1ccc(Cl)cc1)=N[C@@H](CC(=O)Nc1ccc(OCCOCCOCCOCCNc3cccc4c3C(=O)N(C3CCC(=O)NC3=O)C4=O)cc1)c1nnc(C)n1-2 (stereo partly drawn), the GI50 (NCI/ADR-RES ovarian) was > 52.8 µM, the TGI (NCI/ADR-RES ovarian) was > 100 µM and the GI50 (NCI-H460 lung) was 2.13 µM. For the same compound, the TGI (NCI-H460 lung) was > 100 µM, the GI50 (SR leukemia) was < 0.0219 µM and the TGI (SR leukemia) was > 100 µM. The GI50 (SNB-75 CNS) was < 0.01 µM, the GI50 (HOP-92 NSCLC) was < 0.0125 µM and the TGI (HOP-92 NSCLC) was > 51.8 µM. For the same compound, the GI50 (EKVX NSCLC) was 0.409 µM, the TGI (EKVX NSCLC) was > 100 µM and the GI50 (HT29 colon) was 0.314 µM. The TGI (HT29 colon) was > 100 µM, the GI50 (SK-MEL-2 melanoma) was 0.347 µM and the TGI (SK-MEL-2 melanoma) was > 100 µM. The GI50 (HS 578T breast) was < 0.0178 µM, the TGI (HS 578T breast) was > 100 µM and the GI50 (UACC-62 melanoma) was < 0.0462 µM. The TGI (UACC-62 melanoma) was > 100 µM.
C=C(C)[C@@H]1CC[C@]2(C)[C@H](CC[C@@H]3[C@@H]([C@@](C)(O)CCC=C(C)C)CC[C@]32C)[C@@]1(C)CCC(=O)O showed a GI50 (NCI/ADR-RES ovarian) of 20.2 µM, a TGI (NCI/ADR-RES ovarian) of 41.3 µM and a GI50 (NCI-H460 lung) of 31.9 µM. The TGI (NCI-H460 lung) was > 100 µM, the GI50 (SR leukemia) was 16.5 µM and the TGI (SR leukemia) was 44.7 µM. For the same compound, the GI50 (SNB-75 CNS) was 15.3 µM, the TGI (SNB-75 CNS) was 34.8 µM and the GI50 (HOP-92 NSCLC) was 12.7 µM. For the same compound, the TGI (HOP-92 NSCLC) was 27.2 µM, the GI50 (EKVX NSCLC) was 24.2 µM and the TGI (EKVX NSCLC) was 59.6 µM. The GI50 (HT29 colon) was 24.1 µM, the TGI (HT29 colon) was > 100 µM and the GI50 (SK-MEL-2 melanoma) was 17.6 µM. For the same compound, the TGI (SK-MEL-2 melanoma) was 39 µM, the GI50 (HS 578T breast) was 24 µM and the TGI (HS 578T breast) was 86.9 µM. The GI50 (UACC-62 melanoma) was 13.9 µM and the TGI (UACC-62 melanoma) was 29.5 µM.
C=CCn1c(SCC(=O)Nc2ccc(C(=O)/C=C/c3cc(OC)c(OC)c(OC)c3)cc2)nnc1-c1ccc(OC)cc1 was tested, and the GI50 (NCI/ADR-RES ovarian) was 1.45 µM, the TGI (NCI/ADR-RES ovarian) was 17.6 µM and the GI50 (NCI-H460 lung) was 0.698 µM. For the same compound, the TGI (NCI-H460 lung) was 2.59 µM, the GI50 (SR leukemia) was 0.255 µM and the TGI (SR leukemia) was > 46.1 µM. For the same compound, the GI50 (SNB-75 CNS) was 0.311 µM, the TGI (SNB-75 CNS) was 9.19 µM and the GI50 (HOP-92 NSCLC) was 2.25 µM. The TGI (HOP-92 NSCLC) was 16.4 µM, the GI50 (EKVX NSCLC) was 1.33 µM and the TGI (EKVX NSCLC) was 64 µM. It also gave a GI50 (HT29 colon) of 0.237 µM, a TGI (HT29 colon) of 0.532 µM and a GI50 (SK-MEL-2 melanoma) of 2.1 µM. The TGI (SK-MEL-2 melanoma) was 15.4 µM, the GI50 (HS 578T breast) was 2.12 µM and the TGI (HS 578T breast) was 56.7 µM. The GI50 (UACC-62 melanoma) was 0.865 µM and the TGI (UACC-62 melanoma) was 3.78 µM.
With Cn1c(=S)c2[nH]c(SCCCc3ccccc3)nc2n(C)c1=O the TGI (NCI/ADR-RES ovarian) was > 100 µM, the TGI (NCI-H460 lung) was 42.1 µM and the TGI (SR leukemia) was 27.4 µM. For the same compound, the TGI (SNB-75 CNS) was 84.5 µM, the TGI (HOP-92 NSCLC) was > 100 µM and the TGI (EKVX NSCLC) was 79.3 µM. For the same compound, the TGI (HT29 colon) was > 100 µM, the TGI (SK-MEL-2 melanoma) was > 100 µM and the TGI (HS 578T breast) was > 100 µM. For the same compound, the TGI (UACC-62 melanoma) was > 100 µM.
